In US20250313563A1, “GLYCOGEN SYNTHASE KINASE 3 INHIBITORS AND USES THEREOF” (The Broad Institute, Inc., priority 2022, published 2025):
Read-outs that look alike come from different tables or passages of the source.

Key:
[1] = biological target: GSK3b (GST-full length GSK3b) (Homo sapiens (Human), UniProt P49841); experiment: GSK3b TR-FRET kinase assay; format: biochemical
Method: (§1) TR-FRET Assay: The assay was performed in a white, 384 well, low volume, flat bottom plate (Grenier). After a 30 minute preincubation in assay buffer with the indicated concentration of compound, the kinase activity was initiated by the addition of the substrates. 1 nM GSK3α (GST-full length GSK3α [SignalChem G08-10G]) or 1 nM GSK3b (GST-full length GSK3b: [SignalChem G08-9G]) were then incubated at ambient temperature for 100 minutes in 10 μL of 50 mM Tris, pH 7.5, 20 mM MgCl2, 0.05 mM DTT, 100 μg/mL BSA and 1% DMSO, with 200 nM biotinylated peptide substrate (biotinylated and S645 phosphorylated glycogen synthase 631-650) and either 4 μM ATP (GSK3α, Table 16) or 2 μM ATP (GSK3b, Table 16) or 1 mM ATP (Table 17). The kinase activity was quenched with 2 μL of 250 mM EDTA. A 10 μL volume of 40 nM Strepavidin-d2, 2 nM Tb^2+-pSer641 antibody in TR-FRET Detection Buffer (Invitrogen) was then added. After 60 min at room temperature the plate was read on Envision plate reader using Ex: 340 nm, Em: 615 nm and […]. The normalized 665/615 Signal ratio versus log compound concentration was analyzed by XLFIT to yield IC50 values.

[2] = biological target: GSK3α (GST-full length GSK3α) (Homo sapiens (Human), UniProt P49840); experiment: GSK3α TR-FRET kinase assay; format: biochemical
Method: as §1

[3] = 1 nM GSK3b, 2 μM ATP, 30 minute preincubation, geometric mean, read-out: GSK3-B TR-FRET BIOCHEMICAL (TR-FRET), GMean, IC50
[4] = 1 nM GSK3α, 4 μM ATP, 30 minute preincubation, geometric mean, read-out: GSK3-A TR-FRET BIOCHEMICAL (TR-FRET), GMean, IC50
[5] = 1 nM GSK3b, 2 μM ATP, 30 minute preincubation, Table 16, read-out: GSK3-B TR-FRET BIOCHEMICAL (TR-FRET)
[6] = 1 nM GSK3α, 4 μM ATP, 30 minute preincubation, Table 16, read-out: GSK3-A TR-FRET BIOCHEMICAL (TR-FRET)
[7] = read-out: GSK3-B (TR-FRET 1 mM ATP), GMean, IC50, 1 mM ATP, geometric mean
[8] = read-out: GSK3-A (TR-FRET 1 mM ATP), GMean, IC50, 1 mM ATP, geometric mean

Chain of GSK3b (GST-full length GSK3b) (P49841 whole entry): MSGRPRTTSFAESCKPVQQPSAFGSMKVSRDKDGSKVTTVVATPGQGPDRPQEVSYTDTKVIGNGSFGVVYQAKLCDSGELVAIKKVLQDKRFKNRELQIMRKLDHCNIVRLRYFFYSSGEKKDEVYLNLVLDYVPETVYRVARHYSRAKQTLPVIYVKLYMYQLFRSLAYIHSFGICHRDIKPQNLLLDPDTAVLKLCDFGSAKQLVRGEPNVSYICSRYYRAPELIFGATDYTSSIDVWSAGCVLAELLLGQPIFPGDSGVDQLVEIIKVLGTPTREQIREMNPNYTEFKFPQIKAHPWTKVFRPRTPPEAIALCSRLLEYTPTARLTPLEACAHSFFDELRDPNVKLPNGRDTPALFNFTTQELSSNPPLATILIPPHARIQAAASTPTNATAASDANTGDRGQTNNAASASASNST
Chain of GSK3α (GST-full length GSK3α) (P49840 whole entry): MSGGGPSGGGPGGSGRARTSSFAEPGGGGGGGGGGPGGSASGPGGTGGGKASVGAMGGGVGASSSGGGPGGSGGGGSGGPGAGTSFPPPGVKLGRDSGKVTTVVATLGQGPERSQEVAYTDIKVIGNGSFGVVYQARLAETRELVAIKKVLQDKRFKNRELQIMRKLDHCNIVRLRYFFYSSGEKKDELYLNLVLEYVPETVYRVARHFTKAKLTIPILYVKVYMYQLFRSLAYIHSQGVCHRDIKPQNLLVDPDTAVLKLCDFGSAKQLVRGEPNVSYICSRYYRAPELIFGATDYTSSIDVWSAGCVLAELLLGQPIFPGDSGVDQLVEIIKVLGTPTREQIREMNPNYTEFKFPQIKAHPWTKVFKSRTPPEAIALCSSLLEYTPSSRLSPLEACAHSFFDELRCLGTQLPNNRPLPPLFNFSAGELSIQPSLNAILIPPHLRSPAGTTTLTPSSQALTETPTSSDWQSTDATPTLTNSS

| SMILES | IC50 [1, 3] [nM] | IC50 [2, 4] [nM] | also measured |
| --- | --- | --- | --- |
| CC[C@]1(c2ccccc2)C2=C(C[C@@H](c3ccccc3)CC2=O)Nc2n[nH]cc21 [Compound 791264] | > 5000 | 100 to 1000 |  |
| CC[C@@]1(c2ccccc2)C2=C(C[C@@H](c3ccccc3)CC2=O)Nc2n[nH]cc21 [Compound 791265] | > 5000 | 1000 to 5000 |  |
| CC[C@]1(c2ccccc2)C2=C(Nc3n[nH]cc31)[C@@H]1CC[C@@H](C1)C2=O [Compound 791266] |  |  | IC50 [1, 5]: > 5000 nM; IC50 [2, 6]: > 5000 nM |
| CC[C@@]1(c2ccccc2)C2=C(Nc3n[nH]cc31)[C@@H]1CC[C@@H](C1)C2=O [Compound 791268] |  |  | IC50 [1, 5]: > 5000 nM; IC50 [2, 6]: > 5000 nM |
| CC[C@]1(c2ccccc2)C2=C(Nc3n[nH]cc31)[C@H]1CC[C@H](C1)C2=O [Compound 791269] |  |  | IC50 [1, 5]: 100 to 1000 nM; IC50 [2, 6]: 100 to 1000 nM |
| CC[C@@]1(c2ccccc2)C2=C(Nc3n[nH]cc31)[C@H]1CC[C@H](C1)C2=O [Compound 791270] |  |  | IC50 [1, 5]: > 1700 nM; IC50 [2, 6]: 100 to 1000 nM |
| CCC1(c2cccc(-c3ccncc3)c2)C2=C(CC(C)(C)CC2=O)Nc2n[nH]cc21 (stereo not drawn) [Compound 791271] | 100 to 1000 | ≤ 100 |  |
| CCC1(c2cccc(-c3cccnc3)c2)C2=C(CC(C)(C)CC2=O)Nc2n[nH]cc21 (stereo not drawn) [Compound 791272] | 100 to 1000 | ≤ 100 |  |
| C[C@@]1(c2ccccc2)C2=C(CC3(CCCC3)CC2=O)Nc2n[nH]cc21 [Compound 792338] | 100 to 1000 | ≤ 100 |  |
| C[C@]1(c2ccccc2)C2=C(CC3(CCCC3)CC2=O)Nc2n[nH]cc21 [Compound 792339] | > 5000 | > 1700 |  |
| CC[C@@]1(c2ccccc2)C2=C(CC(C)(C)CC2=O)Nc2n[nH]c(Br)c21 [Compound 792340] | ≤ 100 | ≤ 100 | IC50 ([1]; GSK3-B (TR-FRET 1 mM ATP), GMean, IC50, 1 mM ATP, geometric mean): 100 to 1000 nM; IC50 ([2]; GSK3-A (TR-FRET 1 mM ATP), GMean, IC50, 1 mM ATP, geometric mean): 100 to 1000 nM |
| CC[C@]1(c2ccccc2)C2=C(CC(C)(C)CC2=O)Nc2n[nH]c(Br)c21 [Compound 792341] | 100 to 1000 | 100 to 1000 |  |
| COc1cccc(C2(C)C3=C(CC(C)(C)CC3=O)Nc3n[nH]cc32)c1 (stereo not drawn) [Compound 792342] | 100 to 1000 | 100 to 1000 |  |
| CCC1(c2cccc(Cl)c2)C2=C(CC(C)(C)CC2=O)Nc2n[nH]c(C(F)(F)F)c21 (stereo not drawn) [Compound 801309] | > 1670 | 1000 to 5000 |  |
| CC[C@@]1(c2cccc(C(F)(F)F)c2)C2=C(CC3(CCCC3)CC2=O)Nc2n[nH]cc21 [Compound 801311] | ≤ 100 | ≤ 100 | IC50 [1, 7]: 100 to 1000 nM; IC50 [2, 8]: ≤ 100 nM |
| CCC1(c2cccc(Cl)c2)C2=C(CC(C)(C)CC2=O)Nc2n[nH]c(Br)c21 (stereo not drawn) [Compound 801314] |  |  | IC50 [1, 7]: 100 to 1000 nM; IC50 [2, 8]: ≤ 100 nM |
| CCC1(c2cccc(C3CC3)c2)C2=C(CC(C)(C)CC2=O)Nc2n[nH]cc21 (stereo not drawn) [Compound 801316] | ≤ 100 | ≤ 100 |  |
| CCC1(c2cccc(N3CCCC3)c2)C2=C(CC(C)(C)CC2=O)Nc2n[nH]cc21 (stereo not drawn) [Compound 801317] | 100 to 1000 | 100 to 1000 |  |
| CCC1(c2cccc(N(C)C(C)=O)c2)C2=C(CC(C)(C)CC2=O)Nc2n[nH]cc21 (stereo not drawn) [Compound 801319] | ≤ 100 | ≤ 100 |  |
| CCC1(c2cccc(N3CCCCC3)c2)C2=C(CC(C)(C)CC2=O)Nc2n[nH]cc21 (stereo not drawn) [Compound 801320] | 100 to 1000 | 100 to 1000 |  |
| CCC1(c2cccc(C(C)C)c2)C2=C(CC(C)(C)CC2=O)Nc2n[nH]cc21 (stereo not drawn) [Compound 801322] | 100 to 1000 | ≤ 100 |  |
| CCC1(c2cccc(Br)c2)C2=C(CC(C)(C)CC2=O)Nc2n[nH]c(C(F)(F)F)c21 (stereo not drawn) [Compound 801324] | ≤ 100 | ≤ 100 |  |
| CC(C)(C)Cc1[nH]nc2c1C1(CCc3cccc(F)c31)C1=C(CC(C)(C)CC1=O)N2 (stereo not drawn) [Compound 801351] | 100 to 1000 | > 1670 |  |
| CC1(C)CC(=O)C2=C(C1)Nc1n[nH]cc1C21CCc2c(F)cccc21 (stereo not drawn) [Compound 801357] | > 1670 | 100 to 1000 |  |
| CC1(C)CC(=O)C2=C(C1)Nc1n[nH]c(Br)c1C21CCc2c(F)cccc21 (stereo not drawn) [Compound 801358] | ≤ 100 | ≤ 100 |  |
| CC1(C)CC(=O)C2=C(C1)Nc1n[nH]cc1[C@@]2(C)c1cccc(-c2ccccc2)c1 [Compound 801366] | > 5000 | > 5000 |  |
| CC1(C)CC(=O)C2=C(C1)Nc1n[nH]cc1[C@]2(C)c1cccc(-c2ccccc2)c1 [Compound 801367] | 100 to 1000 | ≤ 100 |  |
| CCC1(c2cccc(-c3ccccc3)c2)C2=C(CC(C)(C)CC2=O)Nc2n[nH]cc21 (stereo not drawn) [Compound 801369] | > 5000 | > 5000 |  |
| CCC1(c2ccccc2)C2=C(CSCC2=O)Nc2n[nH]cc21 (stereo not drawn) [Compound 801406] |  |  | IC50 ([1]; 1 nM GSK3b, 2 μM ATP, 30 minute preincubation, read-out: GSK3-B TR-FRET BIOCHEMICAL (TR-FRET), IC50): > 5000 nM; IC50 ([2]; 1 nM GSK3α, 4 μM ATP, 30 minute preincubation, read-out: GSK3-A TR-FRET BIOCHEMICAL (TR-FRET), IC50): 1000 to 5000 nM |

Now from value to compound, other results behind:

| IC50 [1, 3] [nM] | IC50 [2, 4] [nM] | SMILES | also measured |
| --- | --- | --- | --- |
| > 5000 | > 5000 | CC[C@@]1(c2cccc(-c3ccncc3)c2)C2=C(CC(C)(C)CC2=O)Nc2n[nH]cc21 [Compound 801412] |  |
| ≤ 100 | ≤ 100 | CCC1(c2cccc(-c3ccncc3)c2)C2=C(CC(C)(C)CC2=O)Nc2n[nH]cc21 (stereo not drawn) [Compound 801413] | IC50 [1, 7]: 1000 to 5000 nM; IC50 [2, 8]: 100 to 1000 nM |
| ≤ 100 | ≤ 100 | CCC1(c2cccc(-c3cnn(C)c3)c2)C2=C(CC(C)(C)CC2=O)Nc2n[nH]c(C(F)(F)F)c21 (stereo not drawn) [Compound 801445] |  |
| > 1670 | 100 to 1000 | CCC1(c2cccc(OCCOC)c2)C2=C(CC(C)(C)CC2=O)Nc2n[nH]cc21 (stereo not drawn) [Compound 801446] |  |
| 1000 to 5000 | 100 to 1000 | CCC1(c2cccc(OC)c2)C2=C(CC(C)(C)CC2=O)Nc2n[nH]cc21 (stereo not drawn) [Compound 801447] |  |
| 100 to 1000 | ≤ 100 | CCC1(c2cccc(OC(C)C)c2)C2=C(CC(C)(C)CC2=O)Nc2n[nH]cc21 (stereo not drawn) [Compound 801448] |  |
| ≤ 100 | ≤ 100 | CCC1(c2cccc(C(F)(F)F)c2)C2=C(CC(C)(C)CC2=O)Nc2n[nH]c(Br)c21 (stereo not drawn) [Compound 802358] |  |
| 100 to 1000 | 1000 to 5000 | CC1(C)CC(=O)C2=C(C1)Nc1n[nH]c(C(F)(F)F)c1C21CCc2c(F)cccc21 (stereo not drawn) [Compound 806568] |  |
| 100 to 1000 | ≤ 100 | Cc1cccc2c1CCC21C2=C(CC(C)(C)CC2=O)Nc2n[nH]cc21 (stereo not drawn) [Compound 806603] |  |
| > 5000 | > 1670 | CCC1(c2cccc(N3CCNCC3)c2)C2=C(CC(C)(C)CC2=O)Nc2n[nH]cc21 (stereo not drawn) [Compound 806604] |  |
| > 5000 | 1000 to 5000 | CC1(C)CC(=O)C2=C(C1)Nc1n[nH]cc1C2(C)c1cc(Cl)ccc1Cl (stereo not drawn) [Compound 806605] |  |
| > 5000 | > 5000 | CC[C@@]1(c2ccccc2)C2=C(C[C@@H](C(F)(F)F)CC2=O)Nc2n[nH]cc21 [Compound 806607] |  |
| > 1670 | 100 to 1000 | CC[C@]1(c2ccccc2)C2=C(C[C@@H](C(F)(F)F)CC2=O)Nc2n[nH]cc21 [Compound 806608] |  |
| > 1670 | 100 to 1000 | CC[C@]1(c2ccccc2)C2=C(C[C@H](C(F)(F)F)CC2=O)Nc2n[nH]cc21 [Compound 806609] |  |
| > 5000 | > 5000 | CC[C@@]1(c2ccccc2)C2=C(C[C@H](C(F)(F)F)CC2=O)Nc2n[nH]cc21 [Compound 806611] |  |
| > 5000 | > 1670 | CC1(C)CC(=O)C2=C(C1)Nc1n[nH]cc1[C@@]21CCc2c(F)cccc21 [Compound 806632] |  |
